In article PMC6436534 (Chemistry (Weinheim an der Bergstrasse, Germany), 2019):
Values after ≈ are worked out from the molar mass of the structure shown. Like-named read-outs stand apart in the source and are kept apart here.

What was measured:
[1] = tested on: mouse; conditions: earlier in vivo mouse studies; cited from earlier work
[2] = traditional octanol water partition coefficient determination
[3] = tested on: vitamin K epoxide reductase (VKOR); test: VKOR inhibition in FIXgla-PC/HEK293 reporter cells; conditions: relative to (R)-enantiomer of cubane analogue
[4] = tested on: adult male C57BL6/J mice; test: Open field test; type: in vivo; conditions: OFT, compared to vehicle (water)
[5] = clinically relevant warfarin analogue; cited from earlier work
[6] = Chemical stability on storage; type: physicochemical; conditions: stored at 8 °C for approximately two years, 1H NMR analysis
[7] = tested on: breast cancer (MCF7) cell line; test: Activity against breast cancer cell line; type: cell-based; conditions: for IC50: MCF7 breast cancer cell line
[8] = tested on: melanoma (MM96L) cell line; test: Activity against melanoma cell line; type: cell-based
[9] = for half-life: human liver microsomes, standard 60 min incubation; for metabolites observed by LC-MS: stored human liver microsomal incubates
[10] = tested on: scabies mites; test: Scabies mite mortality; conditions: at 8 h; same concentration as benzyl benzoate

For `O=C(CCCCCCC(=O)Nc1ccccc1)NO` [compound 11, suberanilohydroxamic acid, reference compound], the in vivo activity [1] is given as “identical activity” and the “log P” value [2] is given as 0.99.
In the case of `CC(=O)CC(c1c(O)c2ccccc2oc1=O)C12C3C4C5C3C1C5C42` [(S)-cubane analogue], the “VKOR inhibition, fold lower activity than the (R)-enantiomer” value [3] is reported as “ca. 3 fold”.
In the case of `O=C(NCCN1CCOCC1)c1ccc(Cl)cc1` [compound 9, moclobemide], the “locomotor profile / total distance travelled” value [4] is reported as “decrease the total distance travelled by the same amount compared to the vehicle”.
In the case of `CC(=O)CC(c1ccc([N+](=O)[O-])cc1)c1c(O)c2ccccc2oc1=O` (stereo not shown) [acenocoumarol], the half-life [5] is listed as 10 h.
With `CC1(O)CC(C2=CC=CC=CC=C2)c2c(c3ccccc3oc2=O)O1` (stereo not shown) [compound 8, COT-warfarin] the “log P” value [2] was 2.82 and the chemical stability [6] was “no signs of decomposition”.
In the case of `O=C(CCCCCCC(=O)NC1=CC=CC=CC=C1)NO` [compound 23], the “fold less active than SAHA” value ([7]; MCF7 and MM96L cell lines, relative to SAHA) is reported as “ca. 2 fold”, the “fold more active than 16” value ([7]; MCF7 and MM96L cell lines, relative to cubane derivative 16) is reported as “ca. 2 fold” and the IC50 [7] is reported as 0.037 ± 0.003 µg/mL (≈ 0.127 µM). For the same molecule, the “log P” value [2] was 1.38 and the IC50 [8] was 0.073 ± 0.008 µg/mL (≈ 0.251 µM).
In the case of `O=C(CCCCCCC(=O)NC12C3C4C5C3C1C5C42)NO` (stereo not shown) [compound 16], the IC50 [7] is listed as 0.053 ± 0.004 µg/mL (≈ 0.183 µM), the in vivo activity [1] is listed as “identical activity” and the “log P” value [2] is listed as 1.52. The IC50 [8] was 0.137 ± 0.005 µg/mL (≈ 0.472 µM).
With `CC(=O)C[C@H](C1=CC=CC=CC=C1)c1c(O)c2ccccc2oc1=O` [(R)-COT] the half-life [9] was 2.17 ± 0.333 h and the “metabolites observed by LC-MS” value [9] was “significant quantities of an M+2 metabolite”.
With `O=C(OCc1ccccc1)C1=CC=CC=CC=C1` [compound 26] the mite mortality [10] was 75% and the “log P” value [2] was 3.34.
With `CC(=O)C[C@@H](C1=CC=CC=CC=C1)c1c(O)c2ccccc2oc1=O` [(S)-COT] the half-life [9] was 1.83 ± 0.633 h and the “metabolites observed by LC-MS” value [9] was “substantial peaks exhibiting an M+16”.
